# Read-outs that look alike come from different tables or passages of the source.
# Experiments:
# S. aureus SH1000 = assay: Planktonic MIC by broth microdilution (BSAC guidelines); format: cell-based, Staphylococcus aureus
# Procedure: (§1) Methods: MICs were determined for planktonic cultures by broth microdilution according to British Society for Antimicrobial Chemotherapy (BSAC) guidelines. Biofilm MICs (bMIC) and minimum biofilm eradication concentrations (MBECs) were determined using the Calgary biofilm device. The effect of Compound 10 on the viability of cold culture cells was determined by growing S. aureus SH1000 to early exponential phase at 37° C. and resuspending the cells in pre-chilled media, where they were maintained in the presence and absence of Compound 10 and control agents. The effect of Compound 10 on slow growing cells expressing the stringent response was also determined by growing cultures to early log phase and the stringent response induced by the addition of the isoleucyl-tRNA synthetase inhibitor mupirocin. Compound 10 and control agents were then added and samples recovered for viable cell determinations.
# [1] = tested on: stringent S. aureus SH1000 cultures; assay: Time-kill against cultures expressing the stringent response (induced with mupirocin); format: cell-based, Staphylococcus aureus; details: for viability / bactericidal activity in time-kill (in words): stringent response induced with mupirocin, agents at 4×MIC
# Procedure: as §1
# When nutrients become limiting for growth bacteria adjust their metabolism from one that supports growth to one that provides for long survival in the absence of nutrients. In many bacteria a key facilitator of this physiological switch, known as the stringent response, is accumulation of guanosine […] and pentaphosphate (Traxler et al., 2008). The antibiotic mupirocin is a strong inducer of the stringent response in S. aureus and effectively causes starvation of charged isoleucyl tRNA by potent inhibition of isoleucy ItRNA synthetase (IRS) (Oliva et al., 2003). The activity of XF drugs against S. aureus SH1000 prevented from growing by the addition of mupirocin (Oliva et al., 2003), was therefore examined (FIG. 10). As an alternative method for arresting growth, bacteria were suspended in cold growth medium (Mascio et al., 2007) and the bactericidal activity of XF drugs was also determined under these conditions (FIG. 11).
# The anti-staphylococcal activities of Compound 10, Compound 12 and a range of comparator agents against slow-growing cultures of Staphylococcus aureus were studied using standard time-kill methodology (Oliva et al. 2003, Hobbs et al. 2008). Staphylococcus aureus SH1000 cultures were grown to early exponential phase (OD600 nm of 0.2) in Mueller-Hinton broth (MHB) before being exposed to antibacterial agents at 4×MIC. An untreated culture served as the negative control. The experiments were undertaken in triplicate.
# The antibiotic mupirocin is a strong inducer of the stringent response in S. aureus and causes starvation of charged isoleucyl tRNA by potent inhibition of isoleucyl tRNA synthetase (IRS) (Oliva et al. 2003, Cassels et al. 1995) Stringency was induced in SH1000 cultures by adding mupirocin (4 mg/L) to cells in the early exponential growth phase (OD600 nm of 0.2) (Oliva et al. 2003, Cassels et al. 1995). Cultures were incubated with mupirocin for 30 minutes before sampling began. Cultures were maintained at 37° C., and samples were taken at 30 minute intervals for 300 minutes, serially diluted in phosphate buffered saline (PBS) and diluted culture was spread on Mueller-Hinton agar and was incubated at 37° C. for 18-24 hours before the number of CFU were counted.
# E. coli cells = assay: Binding of compounds with bacterial cells (spectrofluorimetric analysis of cell lysates); details: 5 min incubation
# Procedure: […] At the end of the incubation period, the cells were sedimented by centrifugation to remove the fraction of unbound test compound and the cell pellet was resuspended in 2 ml of 2% SDS to obtain cell lysates. After overnight incubation with SDS, the amount of cell-bound test compound was estimated by spectrofluorimetric analysis of the cell lysates. The concentration of the compounds in the cell lysates was calculated by measuring the intensities at the maximum of the emission fluorescence spectrum and interpolating the data on a calibration plot. The amount of cell-bound test compound was expressed as nmoles of compound per mg of cell protein. The protein concentration was determined by the method of Lowry (Lowry et al., 1951, J. Biol. Chem. 193:265-275).
# All experiments were run in triplicate and the results represent the average of 3 determinations with standard deviations.
# [2] = tested on: S. aureus SH1000 biofilms; assay: Biofilm MIC and minimum biofilm eradication concentration, Calgary Biofilm Device; format: cell-based, Staphylococcus aureus; details: Staphylococcus aureus, SH1000BIOFILMS, biofilm MIC, read-out: bMIC
# Procedure: as §1
# Biofilm MICs and minimum biofilm eradication concentrations (MBEC) were determined in the Calgary Biofilm Device (Nunc Inc, Roskilde, Denmark) as described by Miller et al., 2005. This involves the following steps. Aliquots (200 μL) of exponential phase cultures of strain SH1000 were added to each well of a 96-well microtitre tray. The lid assembly, which has 96 polystyrene pegs corresponding to each well, was then replaced and the system incubated for 24 hours at 37° C. on a rocking platform. Following this a biofilm of approximately 10^7 cfu matured on each peg. The lid was then washed twice in phosphate-buffered saline (PBS) to remove residual planktonic growth and then placed into a microtitre tray with fresh media containing doubling dilutions of the test antibiotic. The system was then incubated for 24 hours at 37° C. on a rocking platform. The MIC was defined as the lowest concentration of antibiotic completely inhibiting visible growth after this incubation. After the MIC was recorded, the lid assembly was again washed twice in PBS to remove planktonic cells and remaining antibiotic and then placed into fresh drug-free media. The system was incubated for a further 24 hours and the MBEC was defined as the lowest concentration of antibiotic completely inhibiting the re-establishment of planktonic growth.
# [3] = 24 h, S. aureus SH1000, Calgary Biofilm Device, 24 hours (Table 6)
"MIC (S. aureus SH1000; Staphylococcus aureus, planktonic S. aureus SH1000 (Table 6), read-out: MIC)",SMILES,"MIC (S. aureus SH1000; Staphylococcus aureus, planktonic S. aureus SH1000 (Table 5), read-out: MIC)",MIC (S. aureus SH1000; planktonic S. aureus SH1000 (Table 6)),"drop in viability ([1]; stringent response cultures, 4×MIC, within 1 hour)",viability / bactericidal activity in time-kill (in words) [1],"Bound compound (E. coli cells; 0.01 μM compound, 0 washings)","Bound compound (E. coli cells; 0.01 μM compound, 3 washings)","Bound compound (E. coli cells; 0.1 μM compound, 0 washings)","Bound compound (E. coli cells; 0.1 μM compound, 3 washings)","Bound compound (E. coli cells; 0.5 μM compound, 0 washings)","Bound compound (E. coli cells; 0.5 μM compound, 3 washings)","Bound compound (E. coli cells; 1 μM compound, 0 washings)","Bound compound (E. coli cells; 1 μM compound, 3 washings)","MIC [2, 3]","MIC ([2]; S. aureus SH1000, Calgary device (Example H))"
–,"C[N+](C)(C)CCCOc1ccc(-c2c3nc(cc4ccc([nH]4)c(-c4ccc(OCCC[N+](C)(C)C)cc4)c4nc(cc5ccc2[nH]5)C=C4)C=C3)cc1.[Cl-].[Cl-] [Compound 10, 5,15-bis-[4-(3-Trimethylammonio-propyloxy)-phenyl]-porphyrin dichloride]",1 µg/mL,1 µg/mL,5 log,retained potent bactericidal activity,0.026 ± 0.005 nmoles/mg cell proteins,0.015 ± 0.0004 nmoles/mg cell proteins,0.274 ± 0.05 nmoles/mg cell proteins,0.078 ± 0.02 nmoles/mg cell proteins,1.542 ± 0.350 nmoles/mg cell proteins,0.334 ± 0.092 nmoles/mg cell proteins,2.70 ± 0.354 nmoles/mg cell proteins,1.278 ± 0.102 nmoles/mg cell proteins,1 µg/mL,1 µg/mL
1 µg/mL,"C[N+](C)(C)CCCOc1cccc(-c2c3nc(cc4ccc([nH]4)c(-c4cccc(OCCC[N+](C)(C)C)c4)c4nc(cc5ccc2[nH]5)C=C4)C=C3)c1.[Cl-].[Cl-] [Compound 12, 5,15-bis-[3-(3-Trimethylammonio-propyloxy)-phenyl]-porphyrin dichloride]",–,–,–,retained potent bactericidal activity,0.041 ± 0.02 nmoles/mg cell proteins,0.021 ± 0.005 nmoles/mg cell proteins,0.151 ± 0.02 nmoles/mg cell proteins,0.089 ± 0.02 nmoles/mg cell proteins,0.806 ± 0.14 nmoles/mg cell proteins,0.622 ± 0.10 nmoles/mg cell proteins,2.70 ± 0.30 nmoles/mg cell proteins,1.930 ± 0.20 nmoles/mg cell proteins,1 µg/mL,–

# Source: US9326511B2, “Methods of inhibiting microbial biofilms” (priority 2008, dated 2016)
